melting point [°C]	Compound
121 to 123	Nc1ccc(N2CCOCC2)c(F)c1
47 to 49	Cc1c([N+](=O)[O-])cccc1S(=O)(=O)Cl
260 to 262	Cn1cc(-c2cncc(C(=O)O)c2)cn1
155 to 157	Cc1nc(Br)ccc1C(=O)O
92 to 94	O=S(=O)(c1cccc(CCl)c1)N1CCOCC1
193 to 195	O=C(CCl)NC(c1ccccc1)c1ccc2[nH]c(C(F)(F)F)nc2c1 (stereo not drawn)
255 to 257	Cc1c(C(=O)O)oc2ccc(Cl)cc12
150 to 152	COc1ccccc1NS(=O)(=O)c1ccc(N2CCOCC2)c(N)c1
166 to 168	O=[N+]([O-])c1ccc(-c2ncon2)cc1
114 to 116	c1n[nH]cc1C1CCCCN1 (stereo not drawn)
56 to 58	COc1ccc(OC)c(NC(=O)C(C)Cl)c1 (stereo not drawn)
210 to 212	Nc1nncn1Cc1ccccc1
209 to 211	O=C(CBr)c1c[nH]c2ncccc12
103 to 105	Cc1cc(C=O)c(C)n1-c1cccc(C(F)(F)F)c1
54 to 56	CN(C)S(=O)(=O)c1ccc(CCl)o1
86 to 88	OC(c1ccccc1)(c1ccc(F)cc1)c1ccc(F)cc1
78 to 80	COc1cc(F)c([N+](=O)[O-])cc1F
50 to 52	CC(=O)c1cc(C)cc(C(C)=O)c1O
77 to 79	CC(C)CCC(C)NC(=O)C1CSCN1 (stereo not drawn)
92 to 94	O=C1C(=O)N(Cc2ccccc2)c2ccccc21
123 to 125	O=C1CC(N2CCCC2)C(=O)N1 (stereo not drawn)
153 to 155	O=C(O)c1ccc(-c2ccccc2)o1
43 to 45	N#CC1(N2C(=O)C=CC2=O)CCCC1
114 to 116	CCCn1c(N)nc2ccccc21

melting point [°C]	Compound
184 to 186	O=C(O)Cc1csc(N2CCCNC2=O)n1
298 to 300	Cc1cc(Br)cc2c1NC(=O)C2=O
84 to 86	CN(CCCN1C(=O)C=CC1=O)c1ccccc1
159 to 161	O=C(O)CN1C(=O)COc2ccc(S(=O)(=O)Cl)cc21
194 to 196	Cc1ncc(CN)c(O)n1
109 to 111	CN1CCN(S(N)(=O)=O)C(c2ccccc2)C1 (stereo not drawn)
219 to 221	Cc1nn(-c2ccc(Cl)cc2)c(C)c1C(=O)O
52 to 54	CNC(C)c1ccc(S(C)=O)cc1 (stereo not drawn)
113 to 115	Cc1noc(C)c1S(=O)(=O)NCC(=O)O
61 to 63	CCCNC(=S)NN
119 to 121	O=C1NCCc2ccc(F)cc21
95 to 97	Fc1ccccc1CCNC1=NCCS1
171 to 173	Nc1ccc(S(=O)(=O)N2CCCCC2)cn1
192 to 194	Cc1nn(-c2ccccc2)cc1C(=O)O
68 to 70	COCCOc1ccc(Cl)cc1C(=O)O
207 to 209	Cc1c(NC(=O)CCCl)c(=O)n(-c2ccccc2)n1C
207 to 209	Cc1cc(S(N)(=O)=O)c(C)cc1Br
99 to 101	CC(C)c1ccc(SC(C(=O)O)c2ccccc2)cc1 (stereo not drawn)
55 to 57	CC(C)(O)COc1ccc(N)cc1
173 to 175	Cc1cnc(Cl)cc1O
169 to 171	Cn1nc(C2CCCCC2)cc1N
153 to 155	O=C(O)CCc1nnc(-c2cc(F)ccc2Br)o1
210 to 212	COc1ccc(C)cc1Nc1nnc(S)s1
145 to 147	CC(C)Oc1cc(C(=O)O)ccn1

melting point [°C]	Compound
51 to 53	N#CCOc1ccc(N)cc1
109 to 111	CC(C)(C)OC(=O)N1CC(CC(=O)O)C1
179 to 181	O=S(=O)(Cl)c1ccc(-n2cnnn2)cc1
39 to 41	Clc1cc(Cl)nc(C2CC2)n1
200 to 202	O=C(O)c1cnc(-c2ccccc2Cl)s1
224 to 226	CCC1CCc2[nH]c(=O)c(C#N)cc2C1 (stereo not drawn)
146 to 150	CN(C)S(=O)(=O)c1cccc(C(=O)O)c1
209 to 211	CC(O)CCNc1cc2nc[nH]c(=O)c2cc1N (stereo not drawn)
217 to 219	O=C(O)c1csc(COc2ccc(Cl)cc2)n1
223 to 225	Cc1nc2ccnn2c(C)c1CCC(=O)O
46 to 50	COc1cc(-c2noc(CCl)n2)ccc1OC(F)F
105 to 107	COC(=O)/C(C#N)=C/c1ccc(OC)cc1
226 to 228	O=C(O)c1csc(S(=O)(=O)N2CCOCC2)c1
54 to 56	CC(=O)OCc1ccc(Cl)cc1C#N
100 to 102	C=CCNS(=O)(=O)c1ccccc1F
97 to 99	O=C(O)CCC(=O)c1cc(Cl)ccc1Cl
178 to 180	Cn1cncc1C(N)=O
143 to 145	Cn1c(=O)c2c(S)nc(C(C)(C)C)nc2n(C)c1=O
198 to 200	O=C(NC(C(=O)O)c1ccccc1)c1ccccc1 (stereo not drawn)
274 to 276	Nc1nc(=O)c2ccccc2s1
163 to 165	CN(C)CCc1ccc(C(=O)O)cc1
102 to 104	Nc1nc(-c2ccccc2F)cs1
74 to 76	O=C(CCl)NCC1(c2ccccc2)CCCC1
124 to 126	Nc1cccc(-c2ccc3ccccc3c2)n1

melting point [°C]	Compound
187 to 189	Nc1c(I)cc(I)cc1I
67 to 69	N#Cc1ccc(Oc2ccc(Cl)cc2)c(F)c1
153 to 155	CCOc1ccccc1-c1nnc(S)n1N
210 to 212	O=C(O)C1(C(F)(F)F)CCN(Cc2ccccc2)C1 (stereo not drawn)
148 to 150	CCOC(=O)c1c(C)[nH]c(C(=O)C(C)Cl)c1C (stereo not drawn)
211 to 213	O=C(O)C1CCCN1c1ncnc2sccc12 (stereo not drawn)
209 to 211	N#Cc1c(SCC(=O)O)nc2c(c1-c1ccco1)CCCC2
187 to 189	CC(Cl)c1nc(-c2nnc[nH]2)no1 (stereo not drawn)
150 to 152	Cn1c(NN)nc2ccccc2c1=O
175 to 177	CN(CC(=O)O)C(=O)c1cc(Cl)nnc1Cl
129 to 131	NCc1cc2c([nH]c1=O)CCC2
39 to 41	C#Cc1nc2ccccc2s1
76 to 78	O=C(O)CCOc1ccc(F)cc1F
103 to 105	CS(=O)(=O)CC(O)c1ccccc1 (stereo not drawn)
36 to 38	Cc1nc(C(C)(C)C)nc(Cl)c1C
129 to 131	CC(C)CC1CCC(=O)NC1=O (stereo not drawn)
139 to 141	COc1cccc(C(N)(C(=O)O)C(F)(F)F)c1 (stereo not drawn)
174 to 176	O=C(O)CCNS(=O)(=O)c1cccnc1Cl
59 to 61	Nc1ccnn1Cc1ccc(F)cc1
157 to 161	Cc1cc(CSc2ccccc2C(=O)O)on1
36 to 38	N#Cc1ccc(F)cc1N=C=O
142 to 144	O=C(CCl)Nc1nc(-c2ccc(F)cc2)cs1
105 to 107	O=C(O)CCCc1nc(-c2ccccc2)no1
< 17	Cc1cc(C)n(-c2ccc(CO)cc2)n1

melting point [°C]	Compound
279 to 281	O=c1[nH]ccc2cc[nH]c12
96 to 98	COc1nc(C)cc(C)c1C#N
172 to 174	CC(C)[C@H](NC(=O)c1c(F)cccc1F)C(=O)O
217 to 219	Cc1cc(C)c2c(C(=O)O)cc(C3CC3)nc2c1
71 to 80	CCOC(=O)C(C(C)=O)C1CCS(=O)(=O)C1 (stereo not drawn)
164 to 166	O=C(O)c1cc2cc(Br)sc2[nH]1
177 to 179	N#CCc1nc(-c2ccc(C#N)cc2)cs1
141 to 143	NCc1ccc(C(N)=O)cc1
136 to 138	C/C(=N\OCC(=O)O)c1ccc2c(c1)OCO2
39 to 41	CC1CC(C(=O)O)CC(C)(C)C1 (stereo not drawn)
113 to 115	O=Cc1c(Cl)c2ccccc2oc1=O
228 to 230	CCn1nnc2cc(C(=O)O)ccc21
199 to 201	O=C1NC(=O)C(c2cccs2)(C2CC2)N1 (stereo not drawn)
132 to 134	Cc1noc(-c2ccc([N+](=O)[O-])c(C)c2)n1
204 to 206	CNc1nc(C(=O)O)cs1
118 to 120	CC(C)(C)OC(=O)NC1CCCN(Cc2ccccc2)C1 (stereo not drawn)
177 to 179	NNc1nc(-c2ccccc2)no1
283 to 285	Cc1sc2nc(CC#N)[nH]c(=O)c2c1C
70 to 72	NCC1CCN(C(=O)c2ccccc2)CC1
75 to 77	CC(=O)c1cnn(-c2ccccn2)c1C
117 to 119	NCCNc1ncnc2sccc12
98 to 100	N#Cc1cccc(NC(=O)CCCl)c1
247 to 249	CCOC(=O)Nc1ccc2c(CCl)cc(=O)oc2c1
157 to 159	Cc1nn(CC(F)(F)F)c(C)c1CC(=O)O

melting point [°C]	Compound
208 to 210	O=C(O)c1ccc(=O)n(-c2ccccc2)n1
180 to 182	N#Cc1ccc(OCC(=O)NN)cc1
159 to 161	Cn1c(C(=O)O)ccc1-c1ccc(F)cc1
147 to 149	COC(=O)c1ccc(NS(C)(=O)=O)cc1
136 to 138	COc1ccc(S(=O)(=O)N2CCc3ccccc32)cc1C(=O)O
170 to 172	Cc1c(-c2csc(N)n2)sc2ccccc12
89 to 91	NNS(=O)(=O)c1ccccc1[N+](=O)[O-]
104 to 106	COC(=O)C(=O)CC(=O)c1ccc(Br)cc1
95 to 97	CN(C)S(=O)(=O)c1ccc(O)cc1
182 to 184	O=C1C(=O)N(Cc2ccc(Br)cc2)c2ccccc21
156 to 158	COc1cccc(-c2nc(CC(=O)O)cs2)c1OC
159 to 161	CCN(CC)S(=O)(=O)c1cc(C(=O)O)ccc1F
201 to 203	O=C(O)/C=C/c1ccccn1
82 to 84	CC(C)(Br)C(=O)Nc1ccccc1
291 to 293	O=C(O)c1ccc(-c2noc(-c3ccc(F)cc3)n2)cc1
156 to 158	Cc1c(C(=O)C(=O)O)sc2ccccc12
198 to 200	Cc1cc(=O)[nH]c(SCC(=O)O)c1C#N
57 to 59	Cc1cc(CCC(=O)O)c(C)s1
110 to 112	Cc1cccn2c(=O)cc(CCl)nc12
110 to 112	COC(=O)c1cc2ccccc2c(Cl)n1
136 to 138	Cc1ccc(S(C)(=O)=O)cc1S(=O)(=O)Cl

Compound	melting point [°C]
O=C(Nc1nccs1)C(Cl)(Cl)Cl	203 to 205
NC(=O)CN1CC(O)CC1=O (stereo not drawn)	133 to 135
